Assay results reported in ChEMBL document CHEMBL5291721, “A preclinical secondary pharmacology resource illuminates target-adverse drug reaction associations of marketed drugs” (Nat Commun, 2023).

Columns and labels:
Adenosine receptor A1 = target: T1, Adenosine receptor A1 (Homo sapiens, UniProt P30542)
T1 sequence (P30542 whole entry): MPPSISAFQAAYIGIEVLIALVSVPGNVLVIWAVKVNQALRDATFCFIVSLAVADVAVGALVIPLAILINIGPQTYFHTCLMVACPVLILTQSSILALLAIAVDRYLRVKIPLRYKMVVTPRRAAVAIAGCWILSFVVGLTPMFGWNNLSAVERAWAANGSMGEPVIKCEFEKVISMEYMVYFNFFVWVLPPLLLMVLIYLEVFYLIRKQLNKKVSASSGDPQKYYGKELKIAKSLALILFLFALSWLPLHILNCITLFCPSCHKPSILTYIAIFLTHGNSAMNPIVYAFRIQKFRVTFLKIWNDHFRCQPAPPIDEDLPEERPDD

Adenosine receptor A2a = Adenosine receptor A2a (Homo sapiens, UniProt P29274)
[1] = target: Beta-1 adrenergic receptor (Homo sapiens, UniProt P08588); assay type: functional
Vasopressin V1a receptor = Vasopressin V1a receptor (Homo sapiens, UniProt P37288)
B2 bradykinin receptor = target: T2, B2 bradykinin receptor (Homo sapiens, UniProt P30411)
T2 sequence (P30411 whole entry): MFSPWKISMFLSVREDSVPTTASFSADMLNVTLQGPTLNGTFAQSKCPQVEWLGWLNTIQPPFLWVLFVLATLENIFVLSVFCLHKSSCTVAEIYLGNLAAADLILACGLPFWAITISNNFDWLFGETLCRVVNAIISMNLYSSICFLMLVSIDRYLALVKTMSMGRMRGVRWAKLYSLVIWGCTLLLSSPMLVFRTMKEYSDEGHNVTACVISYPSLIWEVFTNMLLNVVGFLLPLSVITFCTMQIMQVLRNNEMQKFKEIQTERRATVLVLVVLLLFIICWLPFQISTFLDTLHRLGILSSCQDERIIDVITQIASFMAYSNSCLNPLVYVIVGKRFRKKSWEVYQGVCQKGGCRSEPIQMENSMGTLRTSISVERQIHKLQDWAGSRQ

Cannabinoid receptor 1 = Cannabinoid receptor 1 (Homo sapiens, UniProt P21554); assay type: functional, cell-based
Endothelin-1 receptor = target: T3, Endothelin-1 receptor (Homo sapiens, UniProt P25101)
T3 sequence (P25101 whole entry): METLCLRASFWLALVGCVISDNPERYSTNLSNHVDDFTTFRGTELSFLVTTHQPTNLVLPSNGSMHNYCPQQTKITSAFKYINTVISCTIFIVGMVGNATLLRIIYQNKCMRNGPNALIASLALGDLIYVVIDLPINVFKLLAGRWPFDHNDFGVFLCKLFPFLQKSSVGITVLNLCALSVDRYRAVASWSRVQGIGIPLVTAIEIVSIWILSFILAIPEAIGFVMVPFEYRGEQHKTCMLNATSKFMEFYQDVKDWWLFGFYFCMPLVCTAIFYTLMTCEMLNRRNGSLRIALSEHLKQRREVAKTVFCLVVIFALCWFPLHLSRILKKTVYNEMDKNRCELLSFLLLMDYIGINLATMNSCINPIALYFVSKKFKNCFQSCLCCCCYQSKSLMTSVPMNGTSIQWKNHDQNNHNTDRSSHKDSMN

[2] = target: 5-hydroxytryptamine receptor 2A (Homo sapiens, UniProt P28223); assay type: functional, cell-based
[3] = target: T4, 5-hydroxytryptamine receptor 3A (Homo sapiens, UniProt P46098); assay type: functional
T4 sequence (P46098 whole entry): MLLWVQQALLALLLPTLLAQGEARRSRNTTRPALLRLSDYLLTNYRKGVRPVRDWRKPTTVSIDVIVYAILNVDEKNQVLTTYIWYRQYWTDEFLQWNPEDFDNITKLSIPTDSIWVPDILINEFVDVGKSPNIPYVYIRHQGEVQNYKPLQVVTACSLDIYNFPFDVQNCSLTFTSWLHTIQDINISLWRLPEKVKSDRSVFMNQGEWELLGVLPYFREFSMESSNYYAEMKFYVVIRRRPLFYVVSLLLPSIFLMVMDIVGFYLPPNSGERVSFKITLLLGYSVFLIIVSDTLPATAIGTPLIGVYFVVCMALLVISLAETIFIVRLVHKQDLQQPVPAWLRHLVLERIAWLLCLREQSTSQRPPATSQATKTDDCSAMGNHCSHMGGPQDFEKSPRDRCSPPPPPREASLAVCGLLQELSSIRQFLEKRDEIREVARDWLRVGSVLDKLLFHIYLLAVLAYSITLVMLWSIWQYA

[4] = target: T5, Equilibrative nucleoside transporter 1 (Homo sapiens, UniProt Q99808)
T5 sequence (Q99808 whole entry): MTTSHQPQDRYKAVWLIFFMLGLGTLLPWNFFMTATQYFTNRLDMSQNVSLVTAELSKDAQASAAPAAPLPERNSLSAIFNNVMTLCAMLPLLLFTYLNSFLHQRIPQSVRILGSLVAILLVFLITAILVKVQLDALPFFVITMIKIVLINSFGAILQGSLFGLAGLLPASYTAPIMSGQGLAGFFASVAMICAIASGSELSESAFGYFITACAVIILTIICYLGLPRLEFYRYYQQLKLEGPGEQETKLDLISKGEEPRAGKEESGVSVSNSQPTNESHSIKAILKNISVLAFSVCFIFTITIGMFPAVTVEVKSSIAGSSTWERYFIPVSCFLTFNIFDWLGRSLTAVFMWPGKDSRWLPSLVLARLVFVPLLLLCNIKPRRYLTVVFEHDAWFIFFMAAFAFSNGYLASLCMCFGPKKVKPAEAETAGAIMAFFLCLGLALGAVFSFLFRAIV
Note: assay procedure not described here.

Adenosine receptor A2a, sequence (P29274 whole entry): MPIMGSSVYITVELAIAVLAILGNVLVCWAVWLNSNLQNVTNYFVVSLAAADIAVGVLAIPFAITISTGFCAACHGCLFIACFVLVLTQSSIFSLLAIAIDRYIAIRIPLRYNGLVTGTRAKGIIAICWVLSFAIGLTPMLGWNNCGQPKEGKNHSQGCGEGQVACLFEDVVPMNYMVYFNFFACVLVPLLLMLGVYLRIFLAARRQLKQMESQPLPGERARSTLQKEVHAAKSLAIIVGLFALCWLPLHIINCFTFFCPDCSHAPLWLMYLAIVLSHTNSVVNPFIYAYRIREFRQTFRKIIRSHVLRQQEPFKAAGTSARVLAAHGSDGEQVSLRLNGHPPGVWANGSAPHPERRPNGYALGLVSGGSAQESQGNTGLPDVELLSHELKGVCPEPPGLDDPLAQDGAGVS
Cannabinoid receptor 1, sequence (P21554 whole entry): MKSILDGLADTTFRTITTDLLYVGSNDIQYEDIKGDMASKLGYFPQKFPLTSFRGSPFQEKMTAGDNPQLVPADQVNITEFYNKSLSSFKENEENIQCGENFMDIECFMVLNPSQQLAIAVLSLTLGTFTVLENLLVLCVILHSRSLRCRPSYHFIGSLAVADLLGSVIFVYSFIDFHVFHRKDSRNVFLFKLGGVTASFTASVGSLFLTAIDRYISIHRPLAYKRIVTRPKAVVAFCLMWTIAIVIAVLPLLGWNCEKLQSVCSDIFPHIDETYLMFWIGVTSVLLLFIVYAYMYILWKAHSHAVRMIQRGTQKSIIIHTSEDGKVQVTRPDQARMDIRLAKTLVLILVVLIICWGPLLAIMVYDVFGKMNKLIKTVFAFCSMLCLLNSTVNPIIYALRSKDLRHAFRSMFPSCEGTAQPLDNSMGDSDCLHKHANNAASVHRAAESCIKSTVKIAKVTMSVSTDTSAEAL
5-hydroxytryptamine receptor 2A, sequence (P28223 whole entry): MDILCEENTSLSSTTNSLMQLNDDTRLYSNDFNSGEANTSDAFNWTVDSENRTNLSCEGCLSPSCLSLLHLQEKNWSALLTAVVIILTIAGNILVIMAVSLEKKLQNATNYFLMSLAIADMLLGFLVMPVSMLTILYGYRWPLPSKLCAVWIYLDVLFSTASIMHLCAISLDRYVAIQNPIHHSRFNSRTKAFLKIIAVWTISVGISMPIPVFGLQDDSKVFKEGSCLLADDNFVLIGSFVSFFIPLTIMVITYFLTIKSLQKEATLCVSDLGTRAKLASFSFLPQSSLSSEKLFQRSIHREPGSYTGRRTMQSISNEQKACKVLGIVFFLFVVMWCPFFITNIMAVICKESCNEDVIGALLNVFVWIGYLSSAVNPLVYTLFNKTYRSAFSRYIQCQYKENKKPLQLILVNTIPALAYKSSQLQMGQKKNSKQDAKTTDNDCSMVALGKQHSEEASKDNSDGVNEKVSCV
Vasopressin V1a receptor, sequence (P37288 whole entry): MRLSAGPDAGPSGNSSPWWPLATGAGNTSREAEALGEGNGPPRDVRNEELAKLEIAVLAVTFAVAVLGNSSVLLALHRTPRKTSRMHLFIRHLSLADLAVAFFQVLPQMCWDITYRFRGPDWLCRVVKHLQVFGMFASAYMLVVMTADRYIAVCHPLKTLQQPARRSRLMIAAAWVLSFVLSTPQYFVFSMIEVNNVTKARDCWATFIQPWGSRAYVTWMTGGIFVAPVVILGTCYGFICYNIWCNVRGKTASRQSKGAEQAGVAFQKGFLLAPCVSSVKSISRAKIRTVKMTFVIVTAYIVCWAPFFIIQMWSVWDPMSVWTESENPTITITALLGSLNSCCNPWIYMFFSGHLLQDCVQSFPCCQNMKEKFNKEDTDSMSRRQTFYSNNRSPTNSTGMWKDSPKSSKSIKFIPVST
Beta-1 adrenergic receptor, sequence (P08588 whole entry): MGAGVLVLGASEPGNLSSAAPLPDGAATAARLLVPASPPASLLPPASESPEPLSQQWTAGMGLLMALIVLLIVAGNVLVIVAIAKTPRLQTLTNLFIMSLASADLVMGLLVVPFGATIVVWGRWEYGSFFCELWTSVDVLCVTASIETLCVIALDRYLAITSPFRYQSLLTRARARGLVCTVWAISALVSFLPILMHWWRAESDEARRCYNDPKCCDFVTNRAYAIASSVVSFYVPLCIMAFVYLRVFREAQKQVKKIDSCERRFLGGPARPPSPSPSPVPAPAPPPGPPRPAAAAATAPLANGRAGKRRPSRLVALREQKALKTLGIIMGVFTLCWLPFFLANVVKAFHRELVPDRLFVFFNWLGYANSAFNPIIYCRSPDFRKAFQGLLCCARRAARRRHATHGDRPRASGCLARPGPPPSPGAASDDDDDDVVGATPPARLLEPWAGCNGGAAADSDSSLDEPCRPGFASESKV

Row | SMILES | AC50 (Adenosine receptor A1) | AC50 (Adenosine receptor A2a) | AC50 [1] | AC50 (Vasopressin V1a receptor) | AC50 (B2 bradykinin receptor) | AC50 (Cannabinoid receptor 1) | AC50 (Endothelin-1 receptor) | AC50 [2] | AC50 [3] | AC50 [4]
1 | COc1cc2c(N)nc(N3CCN(C(=O)OCC(C)(C)O)CC3)nc2c(OC)c1OC [TRIMAZOSIN] | > 30 µM | > 30 µM | > 30 µM | > 30 µM | > 30 µM | > 30 µM | > 30 µM | > 30 µM | > 30 µM | –
2 | COc1ccccc1OCCNCC(O)c1ccc(C)c(S(N)(=O)=O)c1 (stereo not drawn) [AMOSULALOL] | > 30 µM | > 30 µM | 0.06 µM | > 30 µM | > 30 µM | > 30 µM | > 30 µM | > 30 µM | > 30 µM | > 30 µM
3 | CC(=O)OCC(=O)[C@@]12N=C(C)O[C@@H]1C[C@H]1[C@@H]3CCC4=CC(=O)C=C[C@]4(C)[C@H]3[C@@H](O)C[C@@]12C [DEFLAZACORT] | > 30 µM | > 30 µM | > 30 µM | > 30 µM | > 30 µM | > 30 µM | > 30 µM | > 30 µM | > 30 µM | > 30 µM
4 | CC(C)(C)C(=O)Oc1ccc(S(=O)(=O)Nc2ccccc2C(=O)NCC(=O)O)cc1 | > 30 µM | > 30 µM | > 30 µM | > 30 µM | > 30 µM | > 30 µM | > 30 µM | > 30 µM | > 30 µM | –
5 | O=C(O)/C=C/c1ccc(Cn2ccnc2)cc1 [OZAGREL] | > 30 µM | > 30 µM | > 30 µM | > 30 µM | > 30 µM | > 30 µM | > 30 µM | > 30 µM | > 30 µM | –
6 | Cc1ccc(-n2nccn2)c(C(=O)N2CCN(c3nc4cc(Cl)ccc4o3)CC[C@H]2C)c1 [SUVOREXANT] | > 30 µM | > 30 µM | > 30 µM | > 30 µM | > 30 µM | > 30 µM | > 30 µM | > 30 µM | > 30 µM | –
7 | CCC(C(=O)O)c1ccc(N2Cc3ccccc3C2=O)cc1 (stereo not drawn) [INDOBUFEN] | > 30 µM | > 30 µM | > 30 µM | > 30 µM | > 30 µM | > 30 µM | > 30 µM | > 30 µM | > 30 µM | > 30 µM
8 | COc1ccc(-c2ccc3cc(C(=O)O)ccc3c2)cc1C12CC3CC(CC(C3)C1)C2 | > 30 µM | > 30 µM | > 30 µM | > 30 µM | > 30 µM | > 30 µM | > 30 µM | > 30 µM | > 30 µM | > 30 µM
9 | CN1CCC(=C2c3ccccc3CCc3sccc32)CC1 [PIZOTYLINE] | > 30 µM | > 30 µM | > 10 µM | > 30 µM | > 30 µM | > 30 µM | – | > 30 µM | 1.4 µM | > 30 µM
10 | CC(=O)O[C@H]1CC[C@@]2(C)C(=CC[C@@H]3[C@@H]2CC[C@]2(C)C(c4cccnc4)=CC[C@@H]32)C1 [ABIRATERONE ACETATE] | > 30 µM | > 30 µM | > 30 µM | > 30 µM | – | > 30 µM | > 30 µM | > 30 µM | > 30 µM | > 30 µM
11 | Clc1ccc(CCCOCCCN2CCCCC2)cc1 [PITOLISANT] | > 30 µM | > 30 µM | > 30 µM | > 30 µM | > 30 µM | > 30 µM | > 30 µM | > 30 µM | > 30 µM | –
12 | CC[C@@H]1C(=O)OC[C@@H]1Cc1cncn1C [PILOCARPINE] | > 30 µM | > 30 µM | – | > 30 µM | > 30 µM | > 30 µM | – | > 30 µM | > 30 µM | > 30 µM
13 | OC(CNCC(O)C1CCc2cc(F)ccc2O1)C1CCc2cc(F)ccc2O1 (stereo not drawn) [NEBIVOLOL] | > 30 µM | > 30 µM | – | > 30 µM | > 30 µM | 24 µM | > 30 µM | > 30 µM | > 30 µM | > 30 µM
14 | COc1ccc(CCN(C)CCCC(C#N)(c2cc(OC)c(OC)c(OC)c2)C(C)C)cc1OC (stereo not drawn) [GALLOPAMIL] | > 30 µM | > 30 µM | > 30 µM | > 30 µM | > 30 µM | > 30 µM | > 30 µM | > 30 µM | > 30 µM | –
15 | C/C(O)=C(\C#N)C(=O)Nc1ccc(C(F)(F)F)cc1 [TERIFLUNOMIDE] | > 30 µM | > 30 µM | > 30 µM | > 30 µM | – | > 30 µM | > 30 µM | > 30 µM | > 30 µM | > 30 µM
16 | COc1ccccc1N1CCN(CCCNc2cc(=O)n(C)c(=O)n2C)CC1 | > 30 µM | > 30 µM | – | > 30 µM | > 30 µM | > 30 µM | > 30 µM | > 30 µM | > 30 µM | > 30 µM
17 | CC(C[N+](C)(C)C)OC(N)=O (stereo not drawn) [BETHANECHOL] | > 10 µM | > 10 µM | > 10 µM | > 10 µM | > 10 µM | > 30 µM | – | > 10 µM | > 30 µM | > 10 µM
18 | NCC(=O)CCC(=O)O [AMINOLEVULINIC ACID] | > 30 µM | > 30 µM | > 30 µM | > 30 µM | > 30 µM | > 30 µM | > 30 µM | > 30 µM | > 30 µM | –
19 | CO/N=C(\C(=O)N[C@@H]1C(=O)N2C(C(=O)O)=C(CSc3nnnn3C)CS[C@H]12)c1csc(N)n1 [CEFMENOXIME] | > 30 µM | > 30 µM | > 30 µM | > 30 µM | > 30 µM | > 30 µM | > 30 µM | > 30 µM | – | > 30 µM
20 | O=C(NCCNCC(O)COc1ccc(O)cc1)N1CCOCC1 (stereo not drawn) [XAMOTEROL] | > 30 µM | > 30 µM | – | > 30 µM | > 30 µM | > 30 µM | > 30 µM | > 30 µM | > 30 µM | > 30 µM
